These are literature values, as cited in paper PMC10383573, “New Imadazopyrazines with CDK9 Inhibitory Activity as Anticancer and Antiviral: Synthesis, In Silico, and In Vitro Evaluation Approaches” (Pharmaceuticals, 2023).

In one series the target is CDK9 (Homo sapiens, UniProt P50750). Also on record: purchased BPS Biosciences (San Diego, CA). The following applies: compound 2 of Figure 1; ref [40]; cited from earlier work.
Another series has as its system three cancer cell lines. To be noted: average of three cancer cell lines, ref [40], cited from earlier work.
The next series deals with CDK2. The following applies: new-generation CDK9 inhibitors; ref [21] (Atuveciclib), [32] (BAY-1251152); cited from earlier work.
A further series concerns CDK5. The following applies: new-generation CDK9 inhibitors; ref [21]; cited from earlier work.
In the next series the test system is CDK7. To be noted: new-generation CDK9 inhibitors; ref [21]; cited from earlier work.
The subject of series [1] is six breast cancer cell lines. To be noted: read-out: Cytotoxicity IC50; average of six breast cancer cell lines; ref [38],[39]; cited from earlier work.

Sequence of CDK9 (P50750 whole entry): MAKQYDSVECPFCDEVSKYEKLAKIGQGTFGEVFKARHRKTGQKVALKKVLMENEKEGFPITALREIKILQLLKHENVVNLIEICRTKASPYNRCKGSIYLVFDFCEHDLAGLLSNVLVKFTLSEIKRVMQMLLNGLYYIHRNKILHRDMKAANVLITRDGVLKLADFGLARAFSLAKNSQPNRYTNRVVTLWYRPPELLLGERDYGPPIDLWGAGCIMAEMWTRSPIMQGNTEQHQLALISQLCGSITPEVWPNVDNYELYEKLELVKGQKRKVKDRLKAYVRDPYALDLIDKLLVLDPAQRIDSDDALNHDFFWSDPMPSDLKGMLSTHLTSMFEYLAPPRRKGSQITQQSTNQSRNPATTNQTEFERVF
Sequence of CDK9 (O60563 whole entry, further chain): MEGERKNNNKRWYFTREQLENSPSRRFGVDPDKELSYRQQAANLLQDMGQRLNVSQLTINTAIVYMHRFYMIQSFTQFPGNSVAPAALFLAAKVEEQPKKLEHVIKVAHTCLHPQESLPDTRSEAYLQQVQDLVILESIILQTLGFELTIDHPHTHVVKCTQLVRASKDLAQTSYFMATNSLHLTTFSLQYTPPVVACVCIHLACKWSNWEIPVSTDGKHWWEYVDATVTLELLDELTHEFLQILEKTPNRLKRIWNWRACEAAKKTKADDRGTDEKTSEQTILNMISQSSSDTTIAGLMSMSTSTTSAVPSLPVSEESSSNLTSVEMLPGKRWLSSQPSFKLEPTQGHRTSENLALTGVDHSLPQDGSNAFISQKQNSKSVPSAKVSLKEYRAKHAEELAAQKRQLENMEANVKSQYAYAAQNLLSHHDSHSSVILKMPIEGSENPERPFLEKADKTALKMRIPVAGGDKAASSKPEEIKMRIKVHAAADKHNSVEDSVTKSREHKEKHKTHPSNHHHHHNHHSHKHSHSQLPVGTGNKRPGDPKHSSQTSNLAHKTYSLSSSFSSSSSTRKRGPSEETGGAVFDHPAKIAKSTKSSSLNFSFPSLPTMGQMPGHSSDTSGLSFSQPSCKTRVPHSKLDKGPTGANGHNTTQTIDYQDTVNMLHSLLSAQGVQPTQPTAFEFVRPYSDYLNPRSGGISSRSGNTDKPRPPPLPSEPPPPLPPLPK

Take “2-phenylimidazopyrazin-3-amine [Compound 2]”: at CDK9, the “CDK9 IC50” value is reported as “submicromolar”. Further, the half-maximal inhibitory concentration (IC50) at CDK9 is 166 nM; with three cancer cell lines (read-out: Cytotoxicity IC50) it was 6660 nM. Further, the “Cytotoxicity IC50” value with three cancer cell lines is on record as “single-digit”.

`COc1cc(F)ccc1-c1ncnc(Nc2cccc(C[S@](C)(=N)=O)c2)n1` [Atuveciclib]: the values for the IC50 with CDK2, in the series with CDK5 and in the series with CDK7 were 1000 nM, 1600 nM and over 10000 nM, respectively.

For `COc1cc(F)ccc1-c1cc(Nc2cc(CS(C)(=N)=O)ccn2)ncc1F` (stereo not drawn) [BAY-1251152], the IC50 in the series with CDK2 is 2920 nM.

Turning to `Oc1ccc(-c2nc3cnccn3c2NCCc2ccccc2)cc1O` [Compound 1], the IC50 in series [1] is 34800 nM.

As a reminder, the IC50 is the concentration that gives 50% inhibition.
